Assay results published in US20220195462A1, “FULLY-HUMAN POST-TRANSLATIONALLY MODIFIED ANTIBODY THERAPEUTICS” (REGENXBIO INC., priority 2019, published 2022).

Experiments:
[1] = system: carrageenan-induced paw edema in mice; assay: Carrageenan paw edema model in mice; type: in vivo, mouse; conditions: C57BL/6 mice, compared with vehicle control group
From the text: Inflammation models induced by carrageenan are frequently used acute inflammation models. Carrageenan (Cg) is a strong chemical agent that functions in stimulating the release of inflammatory and proinflammatory mediators, including bradykinin, histamine, tachykinins, reactive oxygen, and nitrogen species. Typical signs of inflammation include edema, hyperalgesia, and erythema, which develop immediately following the treatment of carrageenan. This example evaluated the effect of AAV-mediated gene delivery of Lanadelumab on carrageenan-induced paw edema in mice.
In total eighty young adult (8-9 weeks old) male C57BL/6 mice were used for this study. Paw edema was induced by a single subcutaneous (s.c.) injection of 30 μL of 0.7% or 1% carrageenan solution. […] Paw volume was measured using a digital Plethysmometer prior to carrageenan injection, and at 2, 4, 6, 8, 24 and 48 hours after injection. All animals were sacrificed 48 hours after carrageenan injection. Liver and paw specimens were also collected at the necropsy.

[2] = biological target: activated human plasma kallikrein (Enzyme Research Laboratories) (human) (UniProt P03952); assay: cell-based or functional assay

O=C(O)Cc1ccccc1Nc1c(Cl)cccc1Cl [diclofenac, Diclofenac]
paw volume after carrageenan injection ([1]; 0.7% Cg model): significant decrease on paw volume was observed only at 4 and 24 hours
paw volume after carrageenan injection ([1]; 1.0% Cg model): significantly decreased the paw volume at 2, 4, 6, 8 and 24 hours

B1: Lanadelumab (GenScript), purified IgG (antibody, V domains shown)
VH: EVQLLESGGGLVQPGGSLRLSCAASGFTFSHYIMMWVRQAPGKGLEWVSGIYSSGGITVYADSVKGRFTISRDNSKNTLYLQMNSLRAEDTAVYYCAYRRIGVPRRDEFDIWGQGTMVTVSS
VL: DIQMTQSPSTLSASVGDRVTITCRASQSISSWLAWYQQKPGKAPKLLIYKASTLESGVPSRFSGSGSGTEFTLTISSLQPDDFATYYCQQYNTYWTFGQGTKVEIKR
suppression of pKal activity (PFR-AMC fluorogenic kinetic enzymatic assay, antibody dose response) [2]: 0.1 nM

B2: vectorized lanadelumab (AAV8 ApoE.hAAT.L02-derived) in serum, or in total IgG purified from serum, of treated C57BL/6 mice (antibody, V domains shown)
VH: B1 VH
VL: B1 VL
percent reduction in pKal activity (serum diluted 1:25, day 49 post-administration vs day -7; PFR-AMC assay) [2]: 50%
